# Earlier results as cited in patent publication US20230371513A1, “PHOTOSTABLE COMPOSITION AND METHOD OF REDUCING OR CONTROLLING WEED POPULATION APPLYING SAID COMPOSITION” (UPL DO BRASIL INDUSTRIA E COMERCIO DE INSUMOS AGROPECUARIOS …, priority 2020, published 2023).
# Details: buffer
structure (smiles),measurement,value
Cc1nn(-c2cc(NS(C)(=O)=O)c(Cl)cc2Cl)c(=O)n1C(F)F [sulfentrazone],"half-life, direct photolysis",1 to 12 h
